Measurements taken from PubChem BioAssay (NCI).
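GI50: concentration for 50% inhibition of growth. Definition used: TGI = concentration required for complete inhibition of growth.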

Legend:
Test in all cases: inhibition of tumour cell growth, NCI panel, 384-well format
[1] = test system: A549 NSCLC
[2] = test system: CCRF-CEM leukemia
[3] = test system: HCT-116 colon
[4] = test system: HOP-92 NSCLC
[5] = test system: LOX IMVI melanoma
[6] = test system: OVCAR-3 ovarian
[7] = test system: OVCAR-8 ovarian
[8] = test system: SF-268 CNS
[9] = test system: SK-MEL-28 melanoma
[10] = test system: SN12C renal
[11] = test system: SNB-75 CNS
[12] = test system: TK-10 renal
[13] = test system: U251 glioblastoma

CS(=O)(=O)c1ccc(C(=O)Nc2ccc(Cl)c(-c3ccccn3)c2)c(Cl)c1
GI50 [1]: 41.1 µM | TGI [1]: > 100 µM | GI50 [2]: 19.9 µM | TGI [2]: 50 µM | GI50 [3]: 58.3 µM | TGI [3]: > 100 µM | GI50 [4]: 31.2 µM | TGI [4]: 79 µM | GI50 [5]: 47.2 µM | TGI [5]: > 100 µM | GI50 [6]: 35.9 µM | TGI [6]: > 83 µM | GI50 [7]: 45.7 µM | TGI [7]: 99.4 µM | GI50 [8]: 45 µM | TGI [8]: > 100 µM | GI50 [9]: > 53.4 µM | TGI [9]: > 100 µM | GI50 [10]: > 68.8 µM | TGI [10]: > 100 µM | GI50 [11]: 32.3 µM | TGI [11]: 80.3 µM | GI50 [12]: > 52.9 µM | TGI [12]: > 100 µM | GI50 [13]: 49.5 µM | TGI [13]: > 100 µM
